{
  "source": "paper PMC6449043",
  "about": "(ACS chemical biology, 2018)",
  "target": "ndSQR (sulfide quinone oxidoreductase in nanodiscs) (Homo sapiens, UniProt Q9Y6N5)",
  "sequence (Q9Y6N5 42-450)": "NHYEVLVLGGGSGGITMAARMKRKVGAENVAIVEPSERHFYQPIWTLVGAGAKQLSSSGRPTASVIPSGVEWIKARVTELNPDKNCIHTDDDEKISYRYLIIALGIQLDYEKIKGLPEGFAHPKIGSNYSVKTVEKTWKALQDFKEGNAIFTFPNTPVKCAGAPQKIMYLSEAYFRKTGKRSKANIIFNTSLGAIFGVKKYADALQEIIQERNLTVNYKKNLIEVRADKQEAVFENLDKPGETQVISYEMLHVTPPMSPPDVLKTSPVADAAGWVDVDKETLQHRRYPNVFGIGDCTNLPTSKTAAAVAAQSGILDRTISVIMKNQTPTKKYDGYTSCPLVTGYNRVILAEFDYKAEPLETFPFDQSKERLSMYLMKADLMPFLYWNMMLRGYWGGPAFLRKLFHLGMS",
  "experiment": "spectral titration of charge-transfer complex at […] nm",
  "type": "binding",
  "data": [
    {"smiles": "CS", "note": "[MeSH]", "values": [
      {"measurement": "Kd", "value": "38 ± 1", "unit": "µM"}
    ]}
  ]
}
